Reference: PubChem BioAssay AID743232 (The Scripps Research Institute Molecular Screening Center, 2013)
Active and inactive are the calls of the source. The rule behind the calls is not given here.

system: Ga16-expressing cells (no TAAR1), calcium fluorescence, counterscreen; assay: nonselective Ga16 agonists, potency, late-stage follow-up, counter-screen for TAAR1 agonist project, cell-based, fluorescence, dose response (AID 743232)

SMILES	EC50
CC1(C)CCCN(C(=O)c2coc(=O)c(Br)c2)C1	> 29.9 µM (inactive)
NCc1c(O)ccc2ccccc12	> 29.9 µM (inactive)
c1ccc(CCn2nnnc2C(c2cccs2)N2CCN(Cc3ccc4c(c3)OCO4)CC2)cc1 (stereo unspecified)	> 29.9 µM (inactive)
Cc1cc(N(C)C)nc(Nc2ccccc2)n1	> 29.9 µM (inactive)
O=C(Nc1ccncc1)Nc1ccc(F)cc1	> 29.9 µM (inactive)
Cc1cc(C)n(C(CC(=O)N2CCc3ccccc3C2)C(=O)O)n1 (stereo unspecified)	> 29.9 µM (inactive)
O=C(CCN1CCC(c2ccccc2)C1)c1ccc2c(c1)OCCO2 (stereo unspecified)	> 29.9 µM (inactive)
c1ccc(CCN2CN(CCCN3CCOCC3)c3nc4ccccc4n3C2)cc1	> 29.9 µM (inactive)
NC(N)=NN=Cc1c(Cl)cccc1Cl	> 29.9 µM (inactive)
Cc1[nH]c2ccccc2c1CN1CCc2ccccc2C1	> 29.9 µM (inactive)
NC(N)=Nc1cc2ccccc2c2ccccc12	> 29.9 µM (inactive)
O=C(Nc1cccnc1)Nc1cccc(F)c1	> 29.9 µM (inactive)
CCOC(=O)C(NC(C)=O)(N1CCc2ccccc2C1)C(F)(F)F (stereo unspecified)	> 29.9 µM (inactive)
c1ccc2c3c([nH]c2c1)CCNC3	> 29.9 µM (inactive)
c1ccc2c(c1)CCN(c1nc3cc4c(cc3s1)OCO4)C2	> 29.9 µM (inactive)
Nc1nc(Nc2cccc(F)c2)nc2ccccc12	> 29.9 µM (inactive)

SMILES	EC50
COc1cc(C(=O)CCN2CCC(c3ccccc3)C2)cc(OC)c1OC (stereo unspecified)	> 29.9 µM (inactive)
O=C(CCN1CCc2ccccc2CC1)c1ccc2c(c1)OCCO2	> 29.9 µM (inactive)
CC(=C1C(=O)c2ccccc2C1=O)N1CCc2ccccc2C1	> 29.9 µM (inactive)
OCCNc1nc(Nc2cccc(O)c2)nc2ccccc12	> 29.9 µM (inactive)
O=c1[nH]cc(NCCc2ccccc2)c(=O)[nH]1	> 29.9 µM (inactive)
Cc1ccc(NC(=O)CCN2CCc3ccccc3C2)cc1	> 29.9 µM (inactive)
OCCNc1nc(Nc2ccc(O)cc2)nc2ccccc12	> 29.9 µM (inactive)
O=C(Nc1ccccc1)Nc1ccncc1	> 29.9 µM (inactive)
O=C(C(=O)N1CCc2ccccc2C1)c1cn(CC(=O)N2CCCCC2)c2ccccc12	> 29.9 µM (inactive)
CC(=NCCc1ccccc1)C1CCOC1=O (stereo unspecified)	> 29.9 µM (inactive)
CCOC(=O)C(NC(=O)CC)(N1CCc2ccccc2C1)C(F)(F)F (stereo unspecified)	> 29.9 µM (inactive)
O=C(CCN1CCC(c2ccccc2)C1)c1cccs1 (stereo unspecified)	> 29.9 µM (inactive)
O=C(CCCCl)N1CCc2[nH]c3ccccc3c2C1	> 29.9 µM (inactive)
O=C(Nc1cccc2ccccc12)N1CCc2ccccc2C1	> 29.9 µM (inactive)
Nc1nc(Nc2ccccc2)nc2ccccc12	> 29.9 µM (inactive)
